Assay results from publication PMC7830714 (Molecular pharmaceutics, 2017).

Target: T1, ABCG2 (Homo sapiens, UniProt Q9UNQ0)
T1 sequence (Q9UNQ0 1-655): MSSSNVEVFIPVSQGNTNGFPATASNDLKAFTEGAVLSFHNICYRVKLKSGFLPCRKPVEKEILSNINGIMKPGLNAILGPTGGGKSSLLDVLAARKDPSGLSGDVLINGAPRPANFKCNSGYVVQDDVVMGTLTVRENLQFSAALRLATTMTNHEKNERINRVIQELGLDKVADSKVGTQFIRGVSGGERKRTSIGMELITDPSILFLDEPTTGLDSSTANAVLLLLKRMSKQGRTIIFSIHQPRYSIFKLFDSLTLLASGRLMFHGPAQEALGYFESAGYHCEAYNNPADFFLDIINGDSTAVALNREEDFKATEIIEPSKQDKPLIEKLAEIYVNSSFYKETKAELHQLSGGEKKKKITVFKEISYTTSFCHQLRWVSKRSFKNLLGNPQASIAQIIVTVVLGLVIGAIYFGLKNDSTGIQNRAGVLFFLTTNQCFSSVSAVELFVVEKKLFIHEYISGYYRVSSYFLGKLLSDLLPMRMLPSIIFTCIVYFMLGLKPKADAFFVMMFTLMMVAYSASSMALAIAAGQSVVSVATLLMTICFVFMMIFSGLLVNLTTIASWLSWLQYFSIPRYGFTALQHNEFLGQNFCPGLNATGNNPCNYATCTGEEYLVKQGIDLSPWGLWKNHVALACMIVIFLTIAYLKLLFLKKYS
Test: inhibition of […]IAAP photoaffinity labeling in MCF7-FLV1000 membrane vesicles
Assay type: binding

## N#Cc1ccc(-c2c(-c3ncn[nH]3)sc(N3CCOCC3)c2C#N)c(F)c1 [PF-4989216]
  % inhibition of photolabeling at 10 μM: ~ 55
